Patent US20240343704A1, “HALO-SUBSTITUTED AMINO PYRIDINE COMPOUNDS AS INHIBITORS OF THE HAEMATOPOIETIC PROGENITOR KINASE 1 (HPK1)” (priority 2021, published 2024)

Columns and labels:
[1] = biological target: Lck (h) (Homo sapiens, UniProt P06239); assay: Lck Human  Kinase Enzymatic Radiometric Assay; assay type: biochemical; details: read-out: Lck IC50 nM Range*
In short: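 Substrate 33P-incorporation measured by scintillation counting after spotting on P30 filtermat and phosphoric acid washes. Human Lck reacted 40 min at RT in 50 mM Tris pH 7.5 with 10 mM MgAcetate, [gamma-33P]-ATP, 250 uM Cdc2 peptide, 0.1 mM EGTA and 0.1 mM Na3VO4.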

[2] = biological target: T1, Recombinant (1-346) HPK1 (h) (Homo sapiens, UniProt Q92918); assay: HPK1 Human STE Kinase Enzymatic Radiometric Assay; assay type: biochemical; details: read-out: HPK1 IC50 nM Range*
T1 construct: Recombinant (1-346) HPK1 (h) is incubated with 8 mM MOPS pH 7.0
T1 sequence (Q92918 1-346): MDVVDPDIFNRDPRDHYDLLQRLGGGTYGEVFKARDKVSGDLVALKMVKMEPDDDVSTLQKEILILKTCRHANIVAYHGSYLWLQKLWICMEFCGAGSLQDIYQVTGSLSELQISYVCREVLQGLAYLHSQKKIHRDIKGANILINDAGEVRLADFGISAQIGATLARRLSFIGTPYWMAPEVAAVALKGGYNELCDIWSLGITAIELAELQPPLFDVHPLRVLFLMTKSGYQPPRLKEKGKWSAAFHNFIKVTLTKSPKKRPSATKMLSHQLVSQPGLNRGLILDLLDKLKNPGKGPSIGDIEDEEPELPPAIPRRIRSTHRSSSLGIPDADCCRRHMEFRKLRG
Method: A stock solution of 10 mM of test compound is prepared in DMSO. The compound plate was prepared by 3-fold and 9-point serial dilutions. […] The reaction is initiated by The addition of the Mg/ATP mix. After incubation for 40 minutes at RT, the reaction is stopped by the addition of phosphoric acid to a concentration of 0.5%.

Sequence of Lck (h) (P06239 whole entry): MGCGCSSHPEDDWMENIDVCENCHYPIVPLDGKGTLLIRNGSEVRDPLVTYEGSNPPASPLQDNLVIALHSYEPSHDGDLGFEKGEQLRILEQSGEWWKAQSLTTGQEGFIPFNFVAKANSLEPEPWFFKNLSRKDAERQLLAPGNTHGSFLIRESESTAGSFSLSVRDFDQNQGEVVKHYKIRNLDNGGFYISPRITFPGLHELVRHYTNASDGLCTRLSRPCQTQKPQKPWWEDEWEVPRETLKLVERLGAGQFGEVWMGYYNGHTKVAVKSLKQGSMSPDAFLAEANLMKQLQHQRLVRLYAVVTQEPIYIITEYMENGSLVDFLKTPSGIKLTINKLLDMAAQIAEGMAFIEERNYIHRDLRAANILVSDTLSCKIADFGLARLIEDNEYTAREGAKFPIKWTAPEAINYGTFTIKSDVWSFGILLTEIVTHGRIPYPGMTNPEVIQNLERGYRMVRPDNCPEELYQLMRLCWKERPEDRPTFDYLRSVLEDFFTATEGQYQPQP

| Compound | IC50 [1] | IC50 [2] |
| --- | --- | --- |
| CC(C)N1CCN(c2ccc(-c3cc(-c4cc(F)c5c(c4)CCNC5=O)c(N)nc3F)cc2)CC1 [I-336, 6-(2-amino-6-fluoro-5-(4-(4-isopropylpiperazin-1-yl)phenyl)pyridin-3-yl)-8-fluoro-3,4-dihydroisoquinolin-1(2H)-one] | 101 to 1000 nM | 0.1 to 10 nM |
| CN1C[C@H]2C[C@@]2(c2ccc(-c3cc(-c4cc5c(cc4F)C(=O)NCC5)c(N)nc3F)cc2)C1 [I-343, 6-(2-amino-6-fluoro-5-(4-((1R,5S)-3-methyl-3-azabicyclo[3.1.0]hexan-1-yl)phenyl)pyridin-3-yl)-7-fluoro-3,4-dihydroisoquinolin-1(2H)-one] | > 1000 nM | 0.1 to 10 nM |
| CN1C[C@@H]2C[C@]2(c2ccc(-c3cc(-c4cc5c(cc4F)C(=O)NCC5)c(N)nc3F)cc2)C1 [I-344, 6-(2-amino-6-fluoro-5-(4-((1S,5R)-3-methyl-3-azabicyclo[3.1.0]hexan-1-yl)phenyl)pyridin-3-yl)-7-fluoro-3,4-dihydroisoquinolin-1(2H)-one] | > 1000 nM | 0.1 to 10 nM |
| CC(C)N1CCN(c2ccc(-c3cc(-c4ccc5c(c4)CCNC5=O)c(N)nc3F)c(F)c2F)CC1 [I-345, 6-(2-amino-5-(2,3-difluoro-4-(4-isopropylpiperazin-1-yl)phenyl)-6-fluoropyridin-3-yl)-3,4-dihydroisoquinolin-1(2H)-one] | > 1000 nM | 0.1 to 10 nM |
| Nc1nc(F)c(-c2ccc(N3CCS(=O)(=O)CC3)cc2)cc1-c1cc2c(cc1F)C(=O)NCC2 [I-346, 6-(2-amino-5-(4-(1,1-dioxidothiomorpholino)phenyl)-6-fluoropyridin-3-yl)-7-fluoro-3,4-dihydroisoquinolin-1(2H)-one] | > 1000 nM | 0.1 to 10 nM |
| CC(C)N1CCN(c2ccc(-c3cc(-c4cc5c(cc4Cl)C(=O)NCC5)c(N)nc3F)cc2)CC1 [I-349, 6-(2-amino-6-fluoro-5-(4-(4-isopropylpiperazin-1-yl)phenyl)pyridin-3-yl)-7-chloro-3,4-dihydroisoquinolin-1(2H)-one] | > 1000 nM | 0.1 to 10 nM |
| CC(C)[C@@H]1CN(c2ccc(-c3cc(-c4cc(F)c5c(c4)CCNC5=O)c(N)nc3F)cc2)CCO1 [I-351, (R)-6-(2-amino-6-fluoro-5-(4-(2-isopropylmorpholino)phenyl)pyridin-3-yl)-8-fluoro-3,4-dihydroisoquinolin-1(2H)-one] | > 1000 nM | 0.1 to 10 nM |
| CN1C[C@H]2C[C@@]2(c2ccc(-c3cc(-c4cc(F)c5c(c4)CCNC5=O)c(N)nc3F)cc2)C1 [I-352, 6-(2-amino-6-fluoro-5-(4-((1R,5S)-3-methyl-3-azabicyclo[3.1.0]hexan-1-yl)phenyl)pyridin-3-yl)-8-fluoro-3,4-dihydroisoquinolin-1(2H)-one] | > 1000 nM | 0.1 to 10 nM |
| CN1C[C@@H]2C[C@]2(c2ccc(-c3cc(-c4cc(F)c5c(c4)CCNC5=O)c(N)nc3F)cc2)C1 [I-353, 6-(2-amino-6-fluoro-5-(4-((1S,5R)-3-methyl-3-azabicyclo[3.1.0]hexan-1-yl)phenyl)pyridin-3-yl)-8-fluoro-3,4-dihydroisoquinolin-1(2H)-one] | 101 to 1000 nM | 0.1 to 10 nM |
| COc1cc(-c2cc(-c3ccc(N4CCN(C(C)C)CC4)cc3)c(F)nc2N)cc2c1C(=O)NCC2 [I-354, 6-(2-amino-6-fluoro-5-(4-(4-isopropylpiperazin-1-yl)phenyl)pyridin-3-yl)-8-methoxy-3,4-dihydroisoquinolin-1(2H)-one] | 11 to 100 nM | 101 to 1000 nM |
| CC(C)N1CCN(c2ccc(-c3cc(-c4cc5c(c(N(C)C)c4)C(=O)NCC5)c(N)nc3F)cc2)CC1 [I-355, 6-(2-amino-6-fluoro-5-(4-(4-isopropylpiperazin-1-yl)phenyl)pyridin-3-yl)-8-(dimethylamino)-3,4-dihydroisoquinolin-1(2H)-one] | > 1000 nM | 101 to 1000 nM |
| CNc1cc(-c2cc(-c3ccc(N4CCN(C(C)C)CC4)cc3)c(F)nc2N)cc2c1C(=O)NCC2 [I-356, 6-(2-amino-6-fluoro-5-(4-(4-isopropylpiperazin-1-yl)phenyl)pyridin-3-yl)-8-(methylamino)-3,4-dihydroisoquinolin-1(2H)-one] | 101 to 1000 nM | 11 to 100 nM |

Continued, values first:

| IC50 [1] | IC50 [2] | Compound |
| --- | --- | --- |
| > 1000 nM | 101 to 1000 nM | CN1CCN(C(=O)c2cccc(-c3cc(-c4ccc5c(c4)CCNC5=O)c(N)nc3F)c2)CC1 [I-331, 6-(2-amino-6-fluoro-5-(3-(4-methylpiperazine-1-carbonyl)phenyl)pyridin-3-yl)-3,4-dihydroisoquinolin-1(2H)-one] |
| > 1000 nM | 0.1 to 10 nM | CN1CCN(c2ccc(-c3cc(-c4ccc5c(c4)CCNC5=O)c(N)nc3F)cc2N)CC1 [I-332, 6-(2-amino-5-(3-amino-4-(4-methylpiperazin-1-yl)phenyl)-6-fluoropyridin-3-yl)-3,4-dihydroisoquinolin-1(2H)-one] |
| > 1000 nM | 0.1 to 10 nM | Nc1nc(F)c(-c2ccc3c(c2)CCNC3=O)cc1-c1ccc2c(c1)CCNC2=O [I-333, 6,6′-(2-amino-6-fluoropyridine-3,5-diyl)bis(3,4-dihydroisoquinolin-1(2H)-one)] |
| > 1000 nM | 11 to 100 nM | Nc1nc(F)c(-c2ccc3c(c2)CNCC3)cc1-c1ccc2c(c1)CCNC2=O [I-334, 6-(2-amino-6-fluoro-5-(1,2,3,4-tetrahydroisoquinolin-7-yl)pyridin-3-yl)-3,4-dihydroisoquinolin-1(2H)-one 2,2,2-trifluoroacetate] |
| > 1000 nM | 11 to 100 nM | CC(C)N1CCc2ccc(-c3cc(-c4ccc5c(c4)CCNC5=O)c(N)nc3F)cc2C1 [I-335, 6-(2-amino-6-fluoro-5-(2-isopropyl-1,2,3,4-tetrahydroisoquinolin-7-yl)pyridin-3-yl)-3,4-dihydroisoquinolin-1(2H)-one] |
| > 1000 nM | 11 to 100 nM | Nc1nc(F)c(-c2ccc(OC3CCN(C(=O)CC4CC4)CC3)cc2)cc1-c1ccc2c(c1)CCNC2=O [I-337, 6-(2-amino-5-(4-((1-(2-cyclopropylacetyl)piperidin-4-yl)oxy)phenyl)-6-fluoropyridin-3-yl)-3,4-dihydroisoquinolin-1(2H)-one] |
| > 1000 nM | 11 to 100 nM | Nc1nc(F)c(-c2ccc(OC3CCN(C4COC4)CC3)cc2)cc1-c1ccc2c(c1)CCNC2=O [I-338, 6-(2-amino-6-fluoro-5-(4-((1-(oxetan-3-yl)piperidin-4-yl)oxy)phenyl)pyridin-3-yl)-3,4-dihydroisoquinolin-1(2H)-one] |
| > 1000 nM | 11 to 100 nM | Nc1nc(F)c(-c2ccc(OC3CNC3)cc2)cc1-c1cc2c(cc1F)C(=O)NCC2 [I-339, 6-(2-amino-5-(4-(azetidin-3-yloxy)phenyl)-6-fluoropyridin-3-yl)-7-fluoro-3,4-dihydroisoquinolin-1(2H)-one 2,2,2-trifluoroacetate] |
| > 1000 nM | 0.1 to 10 nM | Nc1nc(F)c(-c2ccc(C3(F)CNC3)cc2)cc1-c1ccc2c(c1)CCNC2=O [I-340, 6-(2-amino-6-fluoro-5-(4-(3-fluoroazetidin-3-yl)phenyl)pyridin-3-yl)-3,4-dihydroisoquinolin-1(2H)-one 2,2,2-trifluoroacetate] |
| > 1000 nM | 11 to 100 nM | CC(=O)N1CC(Oc2ccc(-c3cc(-c4cc5c(cc4F)C(=O)NCC5)c(N)nc3F)cc2)C1 [I-341, 6-(5-(4-((1-acetylazetidin-3-yl)oxy)phenyl)-2-amino-6-fluoropyridin-3-yl)-7-fluoro-3,4-dihydroisoquinolin-1(2H)-one] |
| > 1000 nM | 0.1 to 10 nM | CC(=O)N1CC(F)(c2ccc(-c3cc(-c4ccc5c(c4)CCNC5=O)c(N)nc3F)cc2)C1 [I-342, 6-(5-(4-(1-acetyl-3-fluoroazetidin-3-yl)phenyl)-2-amino-6-fluoropyridin-3-yl)-3,4-dihydroisoquinolin-1(2H)-one] |
| > 1000 nM | 0.1 to 10 nM | Nc1nc(F)c(-c2ccc(N3CCSCC3)cc2)cc1-c1cc2c(cc1F)C(=O)NCC2 [I-347, 6-(2-amino-6-fluoro-5-(4-thiomorpholinophenyl)pyridin-3-yl)-7-fluoro-3,4-dihydroisoquinolin-1(2H)-one] |
| > 1000 nM | 0.1 to 10 nM | Nc1nc(F)c(-c2ccc(OC3CCN(C(=O)CCCC[C@@H]4SC[C@@H]5NC(=O)N[C@@H]54)CC3)cc2)cc1-c1ccc2c(c1)CCNC2=O [I-348, (3aS,4S,6aR)-4-(5-(4-(4-(6-amino-2-fluoro-5-(1-oxo-1,2,3,4-tetrahydroisoquinolin-6-yl)pyridin-3-yl)phenoxy)piperidin-1-yl)-5-oxopentyl)tetrahydro-1H-thieno[3,4-d]imidazol-2(3H)-one] |
| 101 to 1000 nM | 0.1 to 10 nM | COCCN1CCC(c2ccc(-c3cc(-c4cc(F)c5c(c4)CCNC5=O)c(N)nc3F)cc2)CC1 [I-350, 6-(2-amino-6-fluoro-5-(4-(1-(2-methoxyethyl)piperidin-4-yl)phenyl)pyridin-3-yl)-8-fluoro-3,4-dihydroisoquinolin-1(2H)-one] |
